Measurements published in US20250230193A1, “CYCLIC COMPOUND HAVING SELECTIVE KRAS INHIBITORY EFFECT ON HRAS AND NRAS” (CHUGAI SEIYAKU KABUSHIKI KAISHA, priority 2022, published 2025).
Where a SMILES comes first, the peptide text is derived from it. Bridges are numbered along the chain shown (N, C = ends). [ ]: non-standard residue; d: D form. The star is where a group is joined. hPhe(3-Cl-4-CF3) = N[C@@H](CCc1ccc(C(F)(F)F)c(Cl)c1)C(=O)O; NPrPhe(4-CF3) = CCCN[C@@H](Cc1ccc(C(F)(F)F)cc1)C(=O)O; NMeGly(cPent) = CN[C@H](C(=O)O)C1CCCC1; Pro(4,4-F2) = O=C(O)[C@@H]1CC(F)(F)CN1; NEtPhe = CCN[C@@H](Cc1ccccc1)C(=O)O; Hyp = O=C(O)[C@@H]1C[C@@H](O)CN1; NMeD = CN[C@@H](CC(=O)O)C(=O)O; NMeL = CN[C@@H](CC(C)C)C(=O)O; Morpholide = C1CN(*)CCO1; NMeA = CN[C@@H](C)C(=O)O; Ac5c = NC1(C(=O)O)CCCC1; Aze = O=C(O)[C@@H]1CCN1; Ac4c = NC1(C(=O)O)CCC1; Sar = CNCC(=O)O

Columns and labels:
[1] = biological target: GDP-bound NRAS wild-type protein (Homo sapiens, UniProt P01111); test: Binding to NRAS by surface plasmon resonance (SPR), Single Cycle Kinetics; settings: SPR
Chain of GDP-bound NRAS wild-type protein (P01111 whole entry): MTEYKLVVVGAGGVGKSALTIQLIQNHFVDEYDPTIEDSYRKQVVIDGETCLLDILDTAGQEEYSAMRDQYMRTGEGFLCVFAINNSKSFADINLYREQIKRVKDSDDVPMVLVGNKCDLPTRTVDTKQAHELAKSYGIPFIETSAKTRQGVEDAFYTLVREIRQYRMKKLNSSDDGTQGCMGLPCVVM

[2] = biological target: GDP-bound HRAS wild-type protein (Homo sapiens, UniProt P01112); test: Binding to HRAS by surface plasmon resonance (SPR), Single Cycle Kinetics; settings: SPR
Chain of GDP-bound HRAS wild-type protein (P01112 whole entry): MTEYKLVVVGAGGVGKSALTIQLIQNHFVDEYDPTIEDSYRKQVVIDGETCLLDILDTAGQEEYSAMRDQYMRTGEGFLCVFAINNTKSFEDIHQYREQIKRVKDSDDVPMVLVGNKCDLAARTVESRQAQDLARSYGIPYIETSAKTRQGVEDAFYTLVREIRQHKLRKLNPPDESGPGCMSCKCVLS

[3] = GDP-bound NRAS wild-type vs GDP-bound KRAS wild-type
[4] = GDP-bound HRAS wild-type vs GDP-bound KRAS wild-type

Compound: CCCN1C(=O)[C@@H]2CCN2C(=O)[C@H](C)N(C)C(=O)[C@H]([C@@H](C)CC)NC(=O)[C@H](CC(C)C)N(C)C(=O)C[C@@H](C(=O)N2CCOCC2)NC(=O)[C@H](C2CCCC2)N(C)C(=O)C2(CCCC2)NC(=O)[C@@H]2C[C@@H](OCC)CN2C(=O)[C@H](CCc2ccc(C(F)(F)F)c(Cl)c2)NC(=O)CN(C)C(=O)[C@@H]1Cc1ccc(C(F)(F)F)cc1 [PP0347] ([NMeL]I[NMeA][Aze][NPrPhe(4-CF3)][Sar][hPhe(3-Cl-4-CF3)][Hyp](Et)[Ac5c][NMeGly(cPent)]D-Morpholide; lactam N-11)
- NRAS/KRAS (ratio of KD for GDP-bound NRAS wild-type to KD for KRAS) [1]: C (A compound having a KD ratio of 0.1 or more and less than 3 is denoted as C)
- HRAS/KRAS (ratio of KD for GDP-bound HRAS wild-type to KD for KRAS) [2]: B (a compound having 3 or more and less than 10 is denoted as B)

Compound: CC[C@H](C)[C@@H]1NC(=O)[C@@H]2CCCc3ccc(cc3)C[C@@H](C(=O)N(C)CC(=O)N[C@@H](CCc3ccc(C(F)(F)F)c(OC)c3)C(=O)N3C[C@H](OC(C)C)C[C@H]3C(=O)NC3(CC(C)(C)C3)C(=O)N(C)[C@@H](C3CCCC3)C(=O)N(C)[C@H](C(=O)N(C)CC)CC(=O)N2C)N2CC/C=C\C[C@@H](C2=O)N(C)C(=O)CN(C)C1=O [PP3084]
- NRAS/KRAS (ratio of KD value with respect to GDP-bound NRAS wild-type protein to KD value with respect to KRAS) ([1]; GDP-bound wild-type proteins): A (a compound having 10 or more and less than 20 is denoted as A)
- HRAS/KRAS (ratio of KD value with respect to GDP-bound HRAS wild-type protein to KD value with respect to KRAS) ([2]; GDP-bound wild-type proteins): B (a compound having 3 or more and less than 10 is denoted as B)

Compound: CC[C@H](C)[C@@H]1NC(=O)[C@H](CC2CCC2)N(C)C(=O)C[C@@H](C(=O)N(C)C)N(C)C(=O)[C@H](C2CCCC2)N(C)C(=O)C2(CCC2)N(C)C(=O)[C@@H]2C[C@@H](C)CN2C(=O)[C@H](CCc2cc(F)c(C(F)(F)F)c(F)c2)NC(=O)CN(C)C(=O)[C@H](Cc2ccc(C)cc2)N2CC/C=C\C[C@@H](C2=O)N(C)C(=O)CN(C)C1=O [PP1803]
- NRAS/KRAS (ratio of KD value for NRAS to KD value for KRAS) [1, 3]: A (a compound having 10 or more and less than 20 is denoted as A)
- HRAS/KRAS (ratio of KD value for HRAS to KD value for KRAS) [2, 4]: B (a compound having 3 or more and less than 10 is denoted as B)

Compound: CCC[C@H]1C(=O)N[C@@H]([C@@H](C)CC)C(=O)N(C)CC(=O)N(C)[C@H]2C/C=C\CCN(C2=O)[C@@H](CC2CCC(F)(F)CC2)C(=O)N(C)CC(=O)N[C@@H](CCc2ccc(C(F)(F)F)c(OC)c2)C(=O)N2C[C@H](OCC)C[C@H]2C(=O)N(C)C2(CCC2)C(=O)N(C)[C@@H](C2CCCC2)C(=O)N(C)[C@H](C(=O)N(C)C)CC(=O)N1C [PP2348]
- NRAS/KRAS (ratio of KD value with respect to NRAS to KD value with respect to KRAS) [1, 3]: A (a compound having 10 or more and less than 20 is denoted as A)
- HRAS/KRAS (ratio of KD value with respect to HRAS to KD value with respect to KRAS) [2, 4]: A (a compound having 10 or more and less than 20 is denoted as A)

Compound: CCCN(C)C(=O)[C@@H]1CC(=O)N(C)[C@@H](COC)C(=O)N[C@@H]([C@@H](C)CC)C(=O)N(C)CC(=O)N(C)[C@H]2C/C=C\CCN(C2=O)[C@@H](Cc2ccc(C(F)(F)F)cc2)C(=O)N(C)CC(=O)N[C@@H](CCc2cc(F)c(C(F)(F)F)c(F)c2)C(=O)N2C[C@H](OCC)C[C@H]2C(=O)NC2(CC(F)(F)C2)C(=O)N(C)[C@@H](C2CCCC2)C(=O)N1C [PP1743]
- NRAS/KRAS (ratio of KD value for NRAS to KD value for KRAS) [1, 3]: AA (a compound having 20 or more is denoted as AA)
- HRAS/KRAS (ratio of KD value for HRAS to KD value for KRAS) [2, 4]: A (a compound having 10 or more and less than 20 is denoted as A)

Compound: CC[C@H](C)[C@@H]1NC(=O)[C@H](CC(C)C)N(C)C(=O)C[C@@H](C(=O)N2CCOCC2)N(C)C(=O)[C@H](C2CCCC2)N(C)C(=O)C2(CCCC2)NC(=O)[C@@H]2CCCN2C(=O)[C@H](CCc2ccc(C(F)(F)F)c(Cl)c2)NC(=O)CN(C)C(=O)[C@H](Cc2ccccc2)N(CC)C(=O)CN(C)C(=O)CN(C)C1=O [PP0210] ([NMeL]I[Sar][Sar][NEtPhe][Sar][hPhe(3-Cl-4-CF3)]P[Ac5c][NMeGly(cPent)][NMeD]-Morpholide; lactam N-11)
- NRAS/KRAS (ratio of KD for GDP-bound NRAS wild-type to KD for KRAS) [1]: C (A compound having a KD ratio of 0.1 or more and less than 3 is denoted as C)
- HRAS/KRAS (ratio of KD for GDP-bound HRAS wild-type to KD for KRAS) [2]: C (A compound having a KD ratio of 0.1 or more and less than 3 is denoted as C)

Compound: CCCN1C(=O)CN(C)C(=O)CNC(=O)[C@H]([C@@H](C)CC)NC(=O)[C@H](CC(C)C)N(C)C(=O)C[C@@H](C(=O)N(C)C)N(C)C(=O)[C@H](C2CCCC2)N(C)C(=O)C2(CCC2)NC(=O)[C@@H]2CC(F)(F)CN2C(=O)[C@H](CCc2ccc(C(F)(F)F)c(Cl)c2)NC(=O)CN(C)C(=O)[C@@H]1Cc1ccc(C(F)(F)F)cc1 [PP0420] ([NMeL]IG[Sar][NPrPhe(4-CF3)][Sar][hPhe(3-Cl-4-CF3)][Pro(4,4-F2)][Ac4c][NMeGly(cPent)][NMeD]-NMe2; lactam N-11)
- NRAS/KRAS (ratio of KD value with respect to GDP-bound NRAS wild-type protein to KD value with respect to KRAS) [1]: B (a compound having 3 or more and less than 10 is denoted as B)
- HRAS/KRAS (ratio of KD value with respect to GDP-bound HRAS wild-type protein to KD value with respect to KRAS) [2]: C (A compound having a KD ratio of 0.1 or more and less than 3 is denoted as C)
